In patent US6410792B1, “Amide derivatives and methods for using the same as selective neuropeptide Y receptor antagonists” (Bayer Corporation, priority 1997, dated 2002) one finds IC50 data, which are given here for 27 compounds.

One assay concerns the target T1, Y2 receptor (Homo sapiens, UniProt P49146).
T1 sequence (P49146 1-381): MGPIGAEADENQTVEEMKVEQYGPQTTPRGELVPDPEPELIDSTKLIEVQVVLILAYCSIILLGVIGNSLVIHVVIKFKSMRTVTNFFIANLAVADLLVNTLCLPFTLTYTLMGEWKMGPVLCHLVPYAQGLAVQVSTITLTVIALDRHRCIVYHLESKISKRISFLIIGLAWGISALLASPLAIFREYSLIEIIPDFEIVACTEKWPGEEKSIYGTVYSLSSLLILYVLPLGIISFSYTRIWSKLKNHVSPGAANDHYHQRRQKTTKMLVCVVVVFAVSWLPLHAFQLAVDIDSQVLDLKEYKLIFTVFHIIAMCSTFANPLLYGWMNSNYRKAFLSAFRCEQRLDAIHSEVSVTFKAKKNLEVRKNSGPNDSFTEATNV
Description: Y2 receptor binding assay ([125I]PYY, membrane protein). The conditions noted are these: membrane protein, read-out: hNPY2 IC50. On the procedure: B. Human Y2 and Y4/PP1 Receptor Binding Assays
Binding assays were performed on GF/C Millipore 96-well plates pretreated with 0.02% polyethylenimine. The binding buffer for rat Y2 binding is Krebs-Ringer bicarbonate (pH 7.4) containing 0.01% BSA and 0.005% bacitracin. Samples consist of membrane protein, 25 pM [1251]PYY and drug dilution. Nonspecific binding is defined by 1 μM NPY. The binding buffer for human Y4/PP1 binding consists of 137 mM NaCl, 5.4 mM KCl, 0.44 mM KH2PO4, 1.26 mM CaCl2, 0.81 mM MgSO4, 20 mM HEPES, 1 mM dithiothreitol, 0.1% bacitracin, 100 mg/l streptomycin sulfate, 1 mg/l aprotinin, 10 mg/ml soybean trypsin inhibitor and 0.3% BSA, pH 7.4. Samples consist of membrane protein, 50 pM human [1251]human PP (hPP: NEN DuPont, Boston, Mass.) and drug dilution. 1 μM hPP is used to define nonspecific binding.
After a 2 hour incubation at room temperature with constant mixing, the samples are aspirated on a vacuum manifold, and rinsed with ice-cold binding buffer. The amount of radioactivity in each well is quantitated with either gamma counting or liquid scintillation.

The target in a further assay is T2, Human NPY5 receptor (Homo sapiens, UniProt Q15761).
T2 sequence (Q15761 1-445): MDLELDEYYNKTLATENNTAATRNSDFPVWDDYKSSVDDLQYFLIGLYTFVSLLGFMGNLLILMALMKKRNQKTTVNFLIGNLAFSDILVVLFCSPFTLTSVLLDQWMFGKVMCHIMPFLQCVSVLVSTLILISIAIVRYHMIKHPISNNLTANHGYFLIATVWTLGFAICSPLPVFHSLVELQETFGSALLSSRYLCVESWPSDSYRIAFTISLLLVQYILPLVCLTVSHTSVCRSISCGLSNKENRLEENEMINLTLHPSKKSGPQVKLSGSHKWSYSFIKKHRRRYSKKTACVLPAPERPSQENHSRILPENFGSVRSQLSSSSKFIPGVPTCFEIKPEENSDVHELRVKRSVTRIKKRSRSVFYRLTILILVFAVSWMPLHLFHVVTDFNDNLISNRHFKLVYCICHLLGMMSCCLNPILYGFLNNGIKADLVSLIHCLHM
Description: Human NPY5 receptor binding assay ([125I]PYY, membrane protein). The conditions noted are these: [125I]PYY binding, read-out: hNPY5 IC50. On the procedure: C. Human and Rat NPY5 Receptor Binding Assays
Binding assays are performed on GF/C Millipore 96well plates pretreated with 0.02% polyethylenimine. The binding buffer is 25 mM Tris, 120 mM NaCl, 5 mM KCl, 1.2 mM KH2PO4, 2.5 mM CaCl2, 1.2 mM MgSO4, 0.1% BSA and 0.5 mg/ml bacitracin, pH 7.4. Samples consist of membrane protein, 75-100 pM [125I]PYY (porcine, NEN-DuPont) and drug dilution. Nonspecific binding is defined by 1 μM PYY. After a 2 hour incubation at room temperature with constant mixing, the samples are aspirated on a vacuum manifold, and rinsed with ice-cold binding buffer. The amount of radioactivity in each well is quantitated with either gamma counting or liquid scintillation.

Where a name gives a salt, the structure may show the parent alone. Read-outs that look alike come from different tables or passages of the source.

What is called IC50 is the concentration at which inhibition is half-maximal. As for `CCC(=O)C1(c2ccccc2)CCN(CC(=O)Nc2ccc(C(=O)c3ccccc3)cc2)CC1` [Compound 69, N-(4-Benzoyl-phenyl)-2-(4-phenyl-4-propionyl-piperidin-1-yl)-acetamide], the values for the IC50 at Y2 receptor ([125I]PYY binding) and at Human NPY5 receptor were above 5 µM and 0.003 µM, respectively. With `O=C(CN1CCOCC1)Nc1ccc(C(=O)c2ccccc2)cc1` [Compound 6, N-(4-Benzoyl-phenyl)-2-morpholin-4-yl-acetamide], the IC50 on Y2 receptor ([125I]PYY binding) is above 5 µM; on Human NPY5 receptor, 0.8 µM.

As for `O=C(CN1CCC(CCC2CCNCC2)CC1)Nc1ccc(C2CCCCC2)cc1` [Compound 54, N-(4-Cyclohexyl-phenyl)-2-[4-(2-piperidin-4-yl-ethyl)-piperidin-1-yl]-acetamide], the concentration for half-maximal inhibition (IC50) on Y2 receptor ([125I]PYY binding) was above 5 µM; at Human NPY5 receptor it was 7.3 µM. Turning to “(2R,4R)-1-[(4-Cyclohexyl-phenylcarbamoyl)-methyl]-4-hydroxy-pyrrolidine-2-carboxylic acid [Compound 90]”, the IC50 on Y2 receptor ([125I]PYY binding) was above 5 µM; on Human NPY5 receptor, 3.8 µM. The matching figures for “N-(4-Benzoyl-phenyl)-2-[4-(4-bromo-phenyl)-4-hydroxy-piperidin-1-yl]-acetamide [Compound 89]”: above 5 µM and 0.52 µM. Consider `CCCC(=O)C1(c2ccccc2)CCN(CC(=O)Nc2ccc(C(=O)c3ccccc3)cc2)CC1` [Compound 74, N-(4-Benzoyl-phenyl)-2-(4-butyryl-4-phenyl-piperidin-1-yl)-acetamide], for which the IC50 at Y2 receptor ([125I]PYY binding) is above 5 µM; on Human NPY5 receptor it was 0.4 µM. `CC1(C)CC(C(N)=O)C(C)(C)N1CC(=O)Nc1ccc(C2CCCCC2)cc1` (stereo not drawn) [Compound 114, 1-[(4-Cyclohexyl-phenylcarbamoyl)-methyl] 2,2,5,5-tetramethyl-pyrrolidine-3-carboxylic acid amide]: the values for the half-inhibitory concentration (IC50) at Y2 receptor ([125I]PYY binding) and at Human NPY5 receptor were above 5 µM and 2.4 µM, respectively. The matching figures for `O=C(CN1CCC[C@@H]1C(O)(c1ccccc1)c1ccccc1)Nc1ccc(C2CCCCC2)cc1` [Compound 83, N-(4-Cyclohexyl-phenyl)-2-[2R-(hydroxy-diphenyl-methyl)-pyrrolidin-1-yl]-acetamide]: above 5 µM and 0.92 µM. In the same order, the values of `O=C(CN1CCC(Br)CC1)Nc1ccc(C(=O)c2ccccc2)cc1` [Compound 108, N-(4-Benzoyl-phenyl)-2-(4-bromo-piperidin-1-yl)-acetamide] are above 5 µM and 0.97 µM. The matching figures for `CNC1(C(N)=O)CCN(CC(=O)Nc2ccc(C(=O)c3ccccc3)cc2)CC1` [Compound 46, 1-[(4-Benzoyl-phenylcarbamoyl)-methyl]-4-methylamino-piperidine-4-carboxylic acid amide]: above 5 µM and 0.005 µM. With `COC[C@@H]1CCCN1CC(=O)Nc1ccc(C2CCCCC2)cc1` [Compound 93, N-(4-Cyclohexyl-phenyl)-2-(2S-methoxymethyl-pyrrolidin-1-yl)-acetamide], the figures for the IC50 on Y2 receptor ([125I]PYY binding) and at Human NPY5 receptor were above 5 µM and 0.48 µM, respectively.

For `O=C(CN1CCN(Cc2ccccc2)CC1)Nc1ccc(C2CCCCC2)cc1` [Compound 13, 2-(4-Benzyl-piperazin-1-yl)-N-(4-cyclohexyl-phenyl)-acetamide], the IC50 at Y2 receptor ([125I]PYY binding) was above 5 µM; at Human NPY5 receptor, 9.1 µM. In the same order, the values of `CN(C)C1CCN(CC(=O)Nc2ccc(C(=O)c3ccccc3)cc2)CC1` [Compound 49, N-(4-Benzoyl-phenyl)-2-(4-dimethylamino-piperidin-1-yl)-acetamide] are above 5 µM and 8.8 µM.

`CC1(C)C[C@@H]2C[C@@](C)(CN2CC(=O)Nc2ccc(C(=O)c3ccccc3)cc2)C1` [Compound 105, N-(4-Benzoyl-phenyl)-2-((1S,5R)-1,3,3-trimethyl-6-aza-bicyclo[3.2.1]oct-6-yl)-acetamide]: the IC50 at Y2 receptor ([125I]PYY binding) is above 5 µM; at Human NPY5 receptor, 5.1 µM. In the same order, the values of `CC1(C)CCN(CC(=O)Nc2ccc(C3CCCCC3)cc2)CC1` [Compound 34, N-(4-Cyclohexyl-phenyl)-2-(4,4-dimethyl-piperidin-1-yl)-acetamide] are above 5 µM and 1.4 µM. The matching figures for `N#CC(c1ccccc1)C1CCN(CC(=O)Nc2ccc(C(=O)c3ccccc3)cc2)CC1` (stereo not drawn) [Compound 57, N-(4-Benzoyl-phenyl)-2-[4-(cyano-phenyl-methyl)-piperidin-1-yl]-acetamide]: above 5 µM and 0.005 µM. The matching figures for `O=C(CN1CCC(CCCC2CCN(CCO)CC2)CC1)Nc1ccc(C(=O)c2ccccc2)cc1` [Compound 67, N-(4-Benzoyl-phenyl)-2-(4-{3-[1-(2-hydroxy-ethyl)-piperidin-4-yl]-propyl}-piperidin-1-yl)-acetamide]: above 5 µM and above 10 µM. Regarding `O=C(CN1CCCC1c1cccnc1)Nc1ccc(C(=O)c2ccccc2)cc1` (stereo not drawn) [Compound 77, N-(4-Benzoyl-phenyl)-2-(2-pyridin-3-yl-pyrrolidin-1-yl)-acetamide], the half-inhibitory concentration (IC50) on Y2 receptor ([125I]PYY binding) was above 5 µM; at Human NPY5 receptor, 2.6 µM. The matching figures for `COc1ccc(C(=O)C2CCN(CC(=O)Nc3ccc(C4CCCCC4)cc3)CC2)cc1` [Compound 116, N-(4-Cyclohexyl-phenyl)-2-[4-(4-methoxy-benzoyl)-piperidin-1-yl]-acetamide]: above 5 µM and 9.5 µM. The matching figures for `O=C(CN1CCC(N2CCCC2)CC1)Nc1ccc(C(=O)c2ccccc2)cc1` [Compound 45, N-(4-Benzoyl-phenyl)-2-(4-pyrrolidin-1-yl-piperidin-1-yl)-acetamide]: above 5 µM and 8.5 µM.

For the compound `O=C(CN1CCC(C(=O)N2CCCCC2)(c2ccccc2)CC1)Nc1ccc(C2CCCCC2)cc1` [Compound 72, N-(4-Cyclohexyl-phenyl)-2-[4-phenyl-4-(piperidine-1-carbonyl)-piperidin-1-yl]-acetamide], the IC50 is above 5 µM at Y2 receptor ([125I]PYY binding) and 1 µM at Human NPY5 receptor. Consider `O=C(CN1CCC[C@H]1C(=O)O)Nc1ccc(C2CCCCC2)cc1` [Compound 99, (2S)-1-[(4-Cyclohexyl-phenylcarbamoyl)-methyl]-pyrrolidine-2-carboxylic acid], for which the 50% inhibitory concentration (IC50) was above 5 µM on Y2 receptor ([125I]PYY binding) and 8.4 µM at Human NPY5 receptor. In the same order, the values of `O=C(CN1CCC(CCC2CCNCC2)CC1)Nc1ccc(C(=O)c2ccccc2)cc1` [Compound 55, n-(4-Benzoyl-phenyl)-2-[4-(2-piperidin-4-ylethyl)-piperidin-1-yl]-acetamide] are above 5 µM and above 10 µM. The matching figures for `O=C(CN1CCCC1CO)Nc1ccc(C(=O)c2ccccc2)cc1` (stereo not drawn) [Compound 118, N-(4-Benzoyl-phenyl)-2-(2-hydroxymethyl-pyrrolidin-1-yl)-acetamide]: above 5 µM and 2 µM. Regarding `O=C(CN1CCC(n2c(=O)[nH]c3ccccc32)CC1)NC(c1ccccc1)c1ccccc1` [Compound 322, N-Benzhydryl-2-[4-(2-oxo-2,3-dihydro-benzoimidazol-1-yl)-piperidin-1-yl]-acetamide; hydrochloride], the IC50 on Y2 receptor ([125I]PYY) is above 5 µM. On to `O=C(CN1CCCC1C(=O)O)Nc1ccc(C(=O)c2ccccc2)cc1` (stereo not drawn) [Compound 124, 1-[(4-Benzoyl-phenylcarbamoyl)-methyl]-pyrrolidine-2-carboxylic acid], for which the IC50 on Y2 receptor ([125I]PYY binding) was above 5 µM. Still for that read-out and setting: to `O=C(CN1CCN(c2ccc(Cl)cc2)CC1)Nc1ccc(C2CCCCC2)cc1` [Compound 4, 2-[4-(4-Chloro-phenyl)-piperazin-1-yl]-N-(4-cyclohexyl-phenyl)-acetamide] belongs above 5 µM.
